Assay results reported in patent publication EP0445156B1, “AGENTS FOR TREATING CHRONIC INFLAMMATORY DISEASES OF THE INTESTINES” (HENNING BERLIN GmbH CHEMIE- UND PHARMAWERK, priority 1988, dated 1990).
≈ marks a conversion by molar mass, not a printed value. Read-outs that look alike come from different tables or passages of the source.

Experiments:
[1] = pH of aqueous solution; assay type: physicochemical; settings: 5%ige wäßrige Lösung
Text: Aus der DE-OS 37 07 999 ist bekannt, Oxipurinol zur Verminderung von Zellschäden nach der Ischämie und vor der Reperfusion zu verwenden, und zwar durch intravenöse Verabreichung eines Alkalimetallsalzes, insbesondere des Natriumsalzes. Aus den Beispielen geht jedoch hervor, daß nicht das reine Natriumsalz verwendet wurde, sondern ein Gemisch aus Salz und überschüssiger Natronlauge. Dies ergibt sich vor allem aus den pH-werten der ca. 1 bis 2%-igen Lösungen von 11,5 bzw. 12,0. Das jetzt erstmals von der Anmelderin in reiner und kristalliner Form hergestellte Natriumsalz besitzt in 5%-iger wäßriger Lösung einen pH-wert von 9,7 und kristallisiert als Monohydrat aus.
(§1) Bei diesem Natrium-Salz handelt es sich um Mono-Natriumoxipurinol-Monohydrat. Das Salz ist weiß und kristallisiert in feinen Nadeln. In wäßriger Lösung reagiert es alkalisch, eine 5%ige Lösung besitzt einen pH-Wert von 9,7. Seine Löslichkeit beträgt: in Wasser bei 25°C 15,8 g/l 0°C 7,2 g/l in Methanol/Wasser (3:1 Vol.) bei 25°C ca. 2,0 g/l

[2] = Solubility; assay type: physicochemical; settings: read-out: Löslichkeit
Procedure: as §1

[3] = Stability of the solid salt (air, drying temperature); assay type: physicochemical
Procedure: Das Salz ist luftbeständig und verträgt Trockentemperaturen bis etwa 70°C. Aus seiner heißen Lösung läßt sich mit verdünnter Salzsäure (10%ig) Oxipurinol fast quantitativ ausfällen.

[4] = test system: durch TNB (Trinitrobenzoesulfonsäure) ausgelösten Colitis der Ratte; assay: Histological proof of the anti-inflammatory effect in TNB-induced colitis of the rat; assay type: in vivo; settings: 25 mg TNB rektal, 5 mg oral über Schlundsonde im Abstand von 8 Stunden, 3. - 21. Tag, TNB alone: Grad II - III
Procedure: (§2) Bei 10 Ratten (Körpermaße: 200-250 g) wurde durch rektale Instillation von 25 mg TNB (in 0,25 ml 30%iger ethanolischer Lösung) eine Colitis ausgelöst. Eine in gleicher Weise behandelte Gruppe von 10 Tieren erhielt vom 3. - 21. Tage nach der TNB-Gabe im Abstand von 8 Stunden 5 mg Oxipurinol-Na, das in 0,5 ml Glucoselösung aufgelöst war, oral über eine Schlundsonde verabreicht. Eine weitere Gruppe von 10 Tieren erhielt lediglich 0,25 ml der 30%igen Ethanollösung rektal instilliert, und weitere 10 Tiere dienten als Kontrolle.
Der Darm (Rectum) der mit TNB behandelten Tiere zeigte eine chronisch-rezidivierende Colitis Grad II - III. Bei einigen Tieren wurden inkomplette Erosionen, insbesondere in den über den Lymphfollikeln gelegenen Stellen des Oberflächenepithels, sehr dichte Infiltrate in der Submukosa und reichlich perivaskulär gelegene Mastzellen im umgebenden Fettgewebe, beobachtet. Die mit TNB und Oxipurinol-Na behandelten Tiere zeigten deutlich geringer ausgeprägte Entzündungemerkmale (Grad I): eine geringfügige Vermehrung von Lymphozyten und Mastzellen sowie ein geringes Ödem.

[5] = test system: durch TNB (Trinitrobenzoesulfonsäure) ausgelösten Colitis der Ratte; assay: Biochemical proof of the anti-inflammatory effect in TNB-induced colitis of the rat (purine nucleotides, TBA-RS in gut samples); assay type: in vivo; settings: 21. Tag, 5 mg oral every 8 h, day 3-21
Procedure: as §2
Bei den im Beispiel 13 charakterisierten Tiergruppen wurden am 21. Tag Darmproben auf den Gehalt an Purinnukleotiden und Lipidperoxydationsprodukten (Thiobarbitursäure-reaktive Substanzen: TBA-RS) hin untersucht.
Die nach TNB-Applikation erhöhte Konzentration von TBA-RS wird durch Oxipurinol-Na-Zugabe auf46 % gesenkt und liegt damit sogar noch unter den Kontrollwerten. Danach verhindert Oxipurinol-Na den durch TNB ausgelösten Abfall der Adenin-'und Guaninnukleotide und die gesteigerte Lipidperoxydation.

[6] = general statement, no solvent or temperature given; cited from earlier work

| Compound | pH-Wert [1] | solubility ([2]; methanol/water (3:1 vol.), organic solvent or mixture, in Methanol/Wasser (3:1 Vol.) bei 25°C) [µg/mL] | solubility ([2]; water, in Wasser bei 0°C) [µg/mL] | solubility ([2]; water, in Wasser bei 25°C) [µg/mL] | Luftbeständigkeit [3] | verträgt Trockentemperaturen ([3]; drying) [°C] | Entzündungsmerkmale / Colitis Grad (Rectum, histologisch) [4] | Gehalte an Adenin- und Guaninnukleotiden (Darmproben) versus Ethanol- und Kontrollgruppe [5] | Löslichkeit (in words) [6] |
| --- | --- | --- | --- | --- | --- | --- | --- | --- | --- |
| O=c1[nH]c(=O)c2cn[nH]c2[nH]1 [Oxipurinol-Natrium, Mono-Natriumoxipurinol-Monohydrat] | 9,7 | ~2000 (≈ 13.1 mM) | 7200 (≈ 47.3 mM) | 15800 (≈ 104 mM) | luftbeständig | ≤ 70 | Grad I | unterschieden sich nicht signifikant |  |
| O=c1[nH]c(=O)c2c[nH]nc2[nH]1 [Oxipurinol] |  |  |  |  |  |  |  |  | sehr schwer löslich |
